From PubChem BioAssay AID256 (DTP/NCI, 2004)
Values joined by “and” are separate entries in the source; they are usually repeats but may differ in a detail not shown here. Identical values can stand only once. Toxic doses and inconclusive results are not listed.

System: CD2F1 mice, L1210 leukemia ip, survival T/C
Assay: NCI In Vivo Anticancer Drug Screen. Data for tumor model L1210 Leukemia (intraperitoneal) in CD2F1 (CDF1) mice
Conditions: higher = longer survival
Summary of the method: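 Ratio T/C, where T is the treated-group value and C the vehicle-dosed control value, from mice implanted with a transplantable tumor.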

[1] = endpoint: mean survival time, dose: 25.0 mg/kg/injection, schedule: Q04DX002 (ip), vehicle: saline with Tween-80
[2] = endpoint: mean survival time, dose: 100.0 mg/kg/injection, schedule: Q01DX001 (ip), vehicle: saline with Tween-80
[3] = endpoint: mean survival time, dose: 200.0 mg/kg/injection, schedule: Q01DX001 (ip), vehicle: saline with Tween-80
[4] = endpoint: mean survival time, dose: 100.0 mg/kg/injection, schedule: Q01DX009 (ip), vehicle: saline with Tween-80
[5] = endpoint: mean survival time, dose: 100.0 mg/kg/injection, schedule: Q04DX003 (ip), vehicle: saline with Tween-80
[6] = endpoint: mean survival time, dose: 200.0 mg/kg/injection, schedule: Q01DX009 (ip), vehicle: saline with Tween-80
[7] = endpoint: mean survival time, dose: 200.0 mg/kg/injection, schedule: Q04DX003 (ip), vehicle: saline with Tween-80
[8] = endpoint: mean survival time, dose: 400.0 mg/kg/injection, schedule: Q04DX003 (ip), vehicle: saline with Tween-80
[9] = endpoint: mean survival time, dose: 100.0 mg/kg/injection, schedule: Q01DX001 (ip), vehicle: saline
[10] = endpoint: mean survival time, dose: 50.0 mg/kg/injection, schedule: Q01DX009 (ip), vehicle: saline with Tween-80
[11] = endpoint: mean survival time, dose: 100.0 mg/kg/injection, schedule: Q01DX009 (ip), vehicle: other
[12] = endpoint: mean survival time, dose: 200.0 mg/kg/injection, schedule: Q01DX009 (ip), vehicle: other
[13] = endpoint: mean survival time, dose: 400.0 mg/kg/injection, schedule: Q01DX009 (ip), vehicle: other
[14] = endpoint: mean survival time, dose: 400.0 mg/kg/injection, schedule: Q01DX009 (ip), vehicle: saline with Tween-80
[15] = endpoint: mean survival time, dose: 10.0 mg/kg/injection, schedule: Q01DX009 (ip), vehicle: Klucel (hydroxypropylcellulose) (HPC)

SMILES: CCCOC(=O)c1ccc(N2N=C(C)CCC2=O)cc1
- T/C [1]: 97 % of control
- T/C (endpoint: mean survival time, dose: 50.0 mg/kg/injection, schedule: Q04DX002 (ip), vehicle: saline with Tween-80): 102 % of control
- T/C (endpoint: mean survival time, dose: 100.0 mg/kg/injection, schedule: Q04DX002 (ip), vehicle: saline with Tween-80): 97 % of control

SMILES: Nc1ccc(OCc2nc(N)nc(N)c2-c2ccc(Cl)cc2)cc1
- T/C (endpoint: mean survival time, dose: 50.0 mg/kg/injection, schedule: Q01DX001 (ip), vehicle: saline with Tween-80): 95 % of control
- T/C [2]: 101 % of control
- T/C [3]: 93 % of control

SMILES: CCCCCCCCCCCC(CCCC)CCCCCCCCCC (stereo not drawn)
- T/C (endpoint: mean survival time, dose: 100.0 mg/kg/injection, schedule: Q01DX001 (ip), vehicle: saline sonified): 96 % of control
- T/C (endpoint: mean survival time, dose: 200.0 mg/kg/injection, schedule: Q01DX001 (ip), vehicle: saline sonified): 102 % of control
- T/C (endpoint: mean survival time, dose: 400.0 mg/kg/injection, schedule: Q01DX001 (ip), vehicle: saline sonified): 108 % of control

SMILES: Cc1ccc(NC(=O)CCl)cc1C
- T/C [4]: 100 % of control
- T/C [5]: 96 % of control
- T/C [6]: 97 % of control
- T/C [7]: 95 % of control
- T/C [8]: 93 % of control

SMILES: Cc1ccc(S(=O)(=O)F)c(Cl)c1
- T/C (endpoint: mean survival time, dose: 50.0 mg/kg/injection, schedule: Q01DX009 (ip), vehicle: saline sonified): 97 % of control
- T/C (endpoint: mean survival time, dose: 100.0 mg/kg/injection, schedule: Q01DX009 (ip), vehicle: saline sonified): 97 % of control
- T/C (endpoint: mean survival time, dose: 200.0 mg/kg/injection, schedule: Q01DX009 (ip), vehicle: saline sonified): 95 % of control

SMILES: O=S1CC2(C1)CS(=O)C2 (stereo not drawn)
- T/C [9]: 103 % of control
- T/C (endpoint: mean survival time, dose: 200.0 mg/kg/injection, schedule: Q01DX001 (ip), vehicle: saline): 103 % of control
- T/C (endpoint: mean survival time, dose: 400.0 mg/kg/injection, schedule: Q01DX001 (ip), vehicle: saline): 100 % of control

SMILES: CC(C)C(=O)OC1(C(C)c2ccccc2)C(=O)NC(=O)NC1=O (stereo not drawn)
- T/C (endpoint: mean survival time, dose: 6.25 mg/kg/injection, schedule: Q01DX009 (ip), vehicle: saline with Tween-80): 92 % of control
- T/C (endpoint: mean survival time, dose: 12.5 mg/kg/injection, schedule: Q01DX009 (ip), vehicle: saline with Tween-80): 97 % of control
- T/C [1]: 91 % of control

SMILES: Cc1ccc(NC(=O)OCCSc2ccc(Cl)cc2)cc1C
- T/C [10]: 96 % of control
- T/C [4]: 92 % of control

SMILES: ONc1nc(NO)c2[nH]cnc2n1
- T/C (endpoint: mean survival time, dose: 2.3 mg/kg/injection, schedule: Q01DX001 (ip), vehicle: other): 124 % of control
- T/C (endpoint: mean survival time, dose: 3.5 mg/kg/injection, schedule: Q01DX001 (ip), vehicle: other): 122 % of control
- T/C (endpoint: mean survival time, dose: 8.0 mg/kg/injection, schedule: Q01DX001 (ip), vehicle: other): 160 % of control and 168 % of control
- T/C (endpoint: mean survival time, dose: 12.5 mg/kg/injection, schedule: Q01DX001 (ip), vehicle: other): 153 % of control
- T/C (endpoint: mean survival time, dose: 29.0 mg/kg/injection, schedule: Q01DX001 (ip), vehicle: other): 156 % of control
- T/C (endpoint: mean survival time, dose: 44.0 mg/kg/injection, schedule: Q01DX001 (ip), vehicle: other): 153 % of control and 172 % of control
- T/C (endpoint: mean survival time, dose: 66.0 mg/kg/injection, schedule: Q01DX001 (ip), vehicle: other): 190 % of control
- T/C (endpoint: mean survival time, dose: 100.0 mg/kg/injection, schedule: Q01DX001 (ip), vehicle: other): 202 % of control
- T/C (endpoint: mean survival time, dose: 150.0 mg/kg/injection, schedule: Q01DX001 (ip), vehicle: other): 182 % of control

SMILES: Cc1c2cc3c(cc2cc2c4cc5c(cc4cc[n+]12)OCO5)OCO3 (tested in a mixture with another compound)
- T/C (endpoint: mean survival time, dose: 6.25 mg/kg/injection, schedule: Q04DX003 (ip), vehicle: saline): 116 % of control and 121 % of control
- T/C (endpoint: mean survival time, dose: 18.75 mg/kg/injection, schedule: Q04DX003 (ip), vehicle: saline): 95 % of control
- T/C (endpoint: mean survival time, dose: 25.0 mg/kg/injection, schedule: Q04DX003 (ip), vehicle: saline): 115 % of control and 90 % of control

SMILES: CC(O)(CCc1ccccc1)CC(O)(C(F)(F)F)C(F)(F)F (stereo not drawn)
- T/C [11]: 96 % of control
- T/C [4]: 97 % of control
- T/C [12]: 102 % of control
- T/C [6]: 102 % of control
- T/C [13]: 98 % of control
- T/C [14]: 108 % of control

SMILES: Cc1c2ccccc2cc2cc[n+]3ccccc3c12
- T/C [15]: 92 % of control
- T/C (endpoint: mean survival time, dose: 20.0 mg/kg/injection, schedule: Q01DX009 (ip), vehicle: Klucel (hydroxypropylcellulose) (HPC)): 103 % of control
- T/C (endpoint: mean survival time, dose: 40.0 mg/kg/injection, schedule: Q01DX009 (ip), vehicle: Klucel (hydroxypropylcellulose) (HPC)): 92 % of control

SMILES: CCN(N=O)C(=O)N(Cc1ccccc1)Cc1ccccc1
- T/C (endpoint: mean survival time, dose: 25.0 mg/kg/injection, schedule: Q01DX009 (ip), vehicle: other): 94 % of control
- T/C (endpoint: mean survival time, dose: 50.0 mg/kg/injection, schedule: Q01DX009 (ip), vehicle: other): 94 % of control
- T/C [11]: 96 % of control
- T/C [12]: 96 % of control

SMILES: O=C(Nc1ccc([N+](=O)[O-])cc1Cl)OCCc1ccccn1
- T/C [10]: 90 % of control
- T/C [2]: 98 % of control
- T/C [5]: 93 % of control
- T/C [3]: 95 % of control
- T/C [7]: 95 % of control
- T/C (endpoint: mean survival time, dose: 400.0 mg/kg/injection, schedule: Q01DX001 (ip), vehicle: saline with Tween-80): 93 % of control
- T/C [8]: 90 % of control

SMILES: O=C(Nc1ccccc1C(=O)O)c1ccccc1
- T/C (endpoint: mean survival time, dose: 25.0 mg/kg/injection, schedule: Q04DX003 (ip), vehicle: saline with Tween-80): 106 % of control
- T/C (endpoint: mean survival time, dose: 50.0 mg/kg/injection, schedule: Q04DX003 (ip), vehicle: saline with Tween-80): 101 % of control
- T/C [5]: 98 % of control and 101 % of control

SMILES: O=C(N/N=C/c1ccccc1)c1ccccc1O
- T/C (endpoint: mean survival time, dose: 100.0 mg/kg/injection, schedule: Q01DX009 (ip), vehicle: Klucel (hydroxypropylcellulose) (HPC)): 96 % of control
- T/C (endpoint: mean survival time, dose: 100.0 mg/kg/injection, schedule: Q04DX003 (ip), vehicle: Klucel (hydroxypropylcellulose) (HPC)): 100 % of control
- T/C (endpoint: mean survival time, dose: 200.0 mg/kg/injection, schedule: Q01DX009 (ip), vehicle: Klucel (hydroxypropylcellulose) (HPC)): 97 % of control
- T/C (endpoint: mean survival time, dose: 200.0 mg/kg/injection, schedule: Q04DX003 (ip), vehicle: Klucel (hydroxypropylcellulose) (HPC)): 94 % of control
- T/C (endpoint: mean survival time, dose: 400.0 mg/kg/injection, schedule: Q01DX009 (ip), vehicle: Klucel (hydroxypropylcellulose) (HPC)): 94 % of control
- T/C (endpoint: mean survival time, dose: 400.0 mg/kg/injection, schedule: Q04DX003 (ip), vehicle: Klucel (hydroxypropylcellulose) (HPC)): 94 % of control

SMILES: CC1(C)N=C(N)N=C(N)N1c1cccc(OCCCC#N)c1
- T/C (endpoint: mean survival time, dose: 25.0 mg/kg/injection, schedule: Q01DX001 (ip), vehicle: saline): 88 % of control
- T/C (endpoint: mean survival time, dose: 50.0 mg/kg/injection, schedule: Q01DX001 (ip), vehicle: saline): 106 % of control
- T/C [9]: 101 % of control

SMILES: CC(=O)OC1CCC2(C)C(CCC3C2CCC2(C)C3CC3OC4(CCC(C)CO4)C(C)C32)C1 (stereo not drawn)
- T/C [5]: 95 % of control and 92 % of control
- T/C [7]: 89 % of control and 90 % of control and 95 % of control
- T/C [8]: 87 % of control and 90 % of control

SMILES: NC1=NC2OC(CO)C(O)C2O1 (stereo not drawn)
- T/C [4]: 105 % of control
- T/C [6]: 100 % of control
- T/C [14]: 102 % of control
- T/C (endpoint: median survival time, dose: 100.0 mg/kg/injection, schedule: Q04DX003 (ip), vehicle: saline with Tween-80): 100 % of control
- T/C (endpoint: median survival time, dose: 200.0 mg/kg/injection, schedule: Q04DX003 (ip), vehicle: saline with Tween-80): 100 % of control
- T/C (endpoint: median survival time, dose: 400.0 mg/kg/injection, schedule: Q04DX003 (ip), vehicle: saline with Tween-80): 100 % of control

SMILES: CSC#N
- T/C (endpoint: mean survival time, dose: 5.0 mg/kg/injection, schedule: Q01DX009 (ip), vehicle: Klucel (hydroxypropylcellulose) (HPC)): 102 % of control
- T/C [15]: 102 % of control

SMILES: O=S(=O)(/N=C1\C=CC=C\C1=N/S(=O)(=O)c1ccccc1)c1ccccc1
- T/C [4]: 95 % of control
- T/C [6]: 92 % of control
- T/C [14]: 98 % of control

SMILES: O=S(=O)(OCCCCCCOS(=O)(=O)c1cccnc1)c1cccnc1
- T/C (endpoint: mean survival time, dose: 10.0 mg/kg/injection, schedule: Q04DX002 (ip), vehicle: saline with Tween-80): 107 % of control

SMILES: Cc1ccc(C2(O)c3ccccc3C(=O)N2c2ccccc2C)cc1 (stereo not drawn)
- T/C [4]: 100 % of control
- T/C [5]: 104 % of control
- T/C [6]: 93 % of control
- T/C [7]: 104 % of control
- T/C [14]: 102 % of control
- T/C [8]: 106 % of control

SMILES: O=C1CSc2nc3ccccc3n21
- T/C [11]: 98 % of control
- T/C [12]: 98 % of control
- T/C [13]: 105 % of control
